Measurements: patent US20240207236A1, “COMPOUND FOR PREVENTING OR TREATING DIABETES” (ONCOCROSS CO., LTD., priority 2021, published 2024)

How the values were obtained:
Assay type in all cases: in vivo, mice (C57BL/6)
[1] = Body weight of mice in STZ-induced insulin-resistant diabetes model
Protocol: (§1) STZ (Sigma-aldrich, S0130, 40 mg/kg b.w., in 0.1 M citrate buffer pH 4.5) was intraperitoneally administered to 9-week-old male mice (C57BL/6) once/1 day for 5 days to perform a first disease induction. After 7 weeks of the first induction, a second induction was performed using the same method as the first induction. For 5 days of an STZ administration period for the first induction, 10% sucrose was administered as drinking water. In addition, after 14 days of the second administration, blood sugar was confirmed to confirm the induction rate, and the induced animals were separated into groups. Experimental substances (R)-4-{(R)-1-[7-(3,4,5-trimethoxy-phenyl)-[1,6] naphthyridine-5-yloxy]-ethyl}pyrrolidine-2-one (BI-1002494) and cromolyn (OC-101) were administered orally into the stomach at 10 mL/kg using an oral administration syringe (sonde) before 16:00 daily for 12 weeks at a frequency of 7 days/week at doses shown in Table 1 below, respectively, and dexamethasone was orally administered as a positive control substance.

[2] = Drinking water intake of mice in STZ-induced insulin-resistant diabetes model; set-up: unit not given here
Protocol: as §1

[3] = test system: animal model of insulin-resistant diabetes; assay: Blood sugar, tail vein blood, blood sugar meter, 4 h fasting; set-up: blood sugar, Mean: unit not given here
Protocol: as §1
Before disease induction, excluding week 9 of administration of experimental substances to mice in each group of Example 1 above, after 2 weeks after the first induction (based on a first administration date), and after 6 weeks and 2 weeks of the second induction (based on the first administration date), blood was collected from the tail vein and blood sugar was measured using a blood sugar meter (Accu-Check, Roche), and fasting was performed for 4 hours from 9:30 a.m. to 1:30 p.m.

[4] = test system: animal model of insulin-resistant diabetes; assay: Blood biochemistry, automated analyzer, at end of observation
Protocol: as §1
(§2) After the observation period for mice of each group in Example 1 was terminated, all surviving animals were fasted in the same manner as when measuring blood sugar, and then anesthetized by inhaling isoflurane, and blood was collected from the abdominal vena cava through laparotomy. After the blood collection was completed, the veins and arteries were cut under anesthesia and exsanguinated. The collected blood was left at room temperature for 30 minutes or more and then centrifuged at 3,000 rpm for 20 minutes. Thereafter, glucose, blood urea nitrogen (BUN), and creatinine were analyzed using an automated blood biochemistry analyzer (Hitachi 3100, Hitachi Co. Ltd., Japan). Indoxyl sulfate (a substance that was mainly produced in the intestines to cause kidney damage, and a substance that caused end-stage renal failure by advancing kidney function damage in patients with renal failure during hemodialysis) was analyzed using LC MS/MS. In addition, blood insulin was analyzed according to a method represented by a commercial Mouse Insulin ELISA KIT (#AKRIN-011T, Sibayagi Co. Ltd., Japan).

[5] = test system: animal model of insulin-resistant diabetes; assay: Histopathological change of liver, kidney and pancreas (H&E); details: count in group of 10 animals
Protocol: as §1
At the end of the observation period, the mice in each group of Example 1 were confirmed to be dead, and the liver, kidney, and pancreas were extracted and fixed with 10% neutral buffered formalin (NBF) in at least 20 times the tissue volume. The fixed tissue was sectioned to a thickness of approximately 4 mm and then produced into a paraffin block through general tissue processing and embedding processes. Thereafter, the tissue was sectioned to a thickness of 4 μm using a rotary microtome, and then H&E staining was performed, and histopathological changes were observed.

[6] = test system: animal model of insulin-resistant diabetes; assay: Blood insulin (Mouse Insulin ELISA) and HOMA-IR; details: 50 mg/kg
Protocol: as §1, §2

[7] = test system: animal model of insulin-resistant diabetes; assay: Blood indoxyl sulfate by LC MS/MS; details: 50 mg/kg/day oral, 12 weeks
Protocol: as §1, §2

[8] = Feed intake of mice in STZ-induced insulin-resistant diabetes model; set-up: feed intake: unit not given here; details: 50 mg/kg/day oral
Protocol: as §1

[9] = 50 mg/kg/day oral, 12 weeks, blood

`C[C@@H]1C[C@H]2[C@@H]3CCC4=CC(=O)C=C[C@]4(C)[C@@]3(F)[C@@H](O)C[C@]2(C)[C@@]1(O)C(=O)CO` [Dexamethasone, reference compound] gave a body weight, Mean ([1]; 2 mg/kg/day oral, week 0) of 24 g, a body weight, Mean ([1]; 2 mg/kg/day oral, week 1) of 23.5 g and a body weight, Mean ([1]; 2 mg/kg/day oral, week 2) of 23.6 g. It also gave a body weight, Mean ([1]; 2 mg/kg/day oral, week 3) of 23.6 g, a body weight, Mean ([1]; 2 mg/kg/day oral, week 4) of 23.6 g and a body weight, Mean ([1]; 2 mg/kg/day oral, week 5) of 23.7 g. For the same molecule, the body weight, Mean ([1]; 2 mg/kg/day oral, week 6) was 23.6 g, the body weight, Mean ([1]; 2 mg/kg/day oral, week 7) was 23.8 g and the body weight, Mean ([1]; 2 mg/kg/day oral, week 9) was 23.3 g. The “drinking water intake, Mean” value ([2]; 2 mg/kg/day oral, week 0) was 7.07, the “drinking water intake, Mean” value ([2]; 2 mg/kg/day oral, week 1) was 7.73 and the “drinking water intake, Mean” value ([2]; 2 mg/kg/day oral, week 2) was 7.05. For the same molecule, the “drinking water intake, Mean” value ([2]; 2 mg/kg/day oral, week 3) was 7.89, the “drinking water intake, Mean” value ([2]; 2 mg/kg/day oral, week 4) was 7.69 and the “drinking water intake, Mean” value ([2]; 2 mg/kg/day oral, week 5) was 7.10. For the same molecule, the “drinking water intake, Mean” value ([2]; 2 mg/kg/day oral, week 6) was 7.35, the “drinking water intake, Mean” value ([2]; 2 mg/kg/day oral, week 7) was 7.18 and the “drinking water intake, Mean” value ([2]; 2 mg/kg/day oral, week 8) was 7.83. The “drinking water intake, Mean” value ([2]; 2 mg/kg/day oral, week 9) was 7.45, the “drinking water intake, Mean” value ([2]; 2 mg/kg/day oral, week 10) was 7.19 and the “blood sugar, Mean” value ([3]; 2 mg/kg/day oral, value column 2 of 6, head prints only weeks 0, 4, 8, 10) was 309.1. For the same molecule, the “blood sugar, Mean” value ([3]; 2 mg/kg/day oral, value column 3 of 6, head prints only weeks 0, 4, 8, 10) was 329.2, the “blood sugar, Mean” value ([3]; 2 mg/kg/day oral, value column 4 of 6, head prints only weeks 0, 4, 8, 10) was 336.9 and the “blood sugar, Mean” value ([3]; 2 mg/kg/day oral, value column 6 of 6, head prints only weeks 0, 4, 8, 10) was 331.4. The “blood sugar, Mean” value ([3]; 2 mg/kg/day oral, week 0) was 307.1, the “T-CHO, Mean” value ([4]; 2 mg/kg/day oral, 12 weeks, blood) was 139.0 dL⁻¹ and the “Kidney Medullar apoptosis” value ([5]; 2 mg/kg (G3)) was 1. The “Kidney Medullar mineralization” value ([5]; 2 mg/kg (G3)) was 2, the “Kidney NHL” value ([5]; 2 mg/kg (G3)) was 6 and the “Kidney bowman's capsule hyperplasia” value ([5]; 2 mg/kg (G3)) was 2. The Kidney pappillary mineralization ([5]; 2 mg/kg (G3)) was 0, the “Liver Apoptosis” value ([5]; 2 mg/kg (G3)) was 4 and the “Liver Cytoplasmic glycogen” value ([5]; 2 mg/kg (G3)) was 0. For the same molecule, the “Liver Eosinophlic focus of cellular alteration” value ([5]; 2 mg/kg (G3)) was 3, the “Liver Mononuclear cell infiltrate” value ([5]; 2 mg/kg (G3)) was 0 and the “Liver NHL” value ([5]; 2 mg/kg (G3)) was 5. For the same molecule, the “Pancrease Apoptosis” value ([5]; 2 mg/kg (G3)) was 0, the “Pancrease NHL” value ([5]; 2 mg/kg (G3)) was 8 and the Pancrease islet degeneration ([5]; 2 mg/kg (G3)) was 1. The Pancrease islet hypertrophy ([5]; 2 mg/kg (G3)) was 0 and the “Pancrease islet, mononuclear cell infillitrate” value ([5]; 2 mg/kg (G3)) was 1.

In the case of `O=C(O)c1cc(=O)c2c(OCC(O)COc3cccc4oc(C(=O)O)cc(=O)c34)cccc2o1` [OC-101, cromolyn, reference compound], the “HOMA-IR compared with the disease control group” value [6] is reported as “decreased statistically significantly”, the “Indoxyl sulfate, Mean” value [7] is reported as 0.8 µg/mL and the feed intake ([8]; week 3) is reported as 5.47. The feed intake ([8]; week 4) was 4.26, the feed intake ([8]; week 6) was 4.29 and the feed intake ([8]; week 9) was 4.51. It also gave a body weight, Mean ([1]; 50 mg/kg/day oral, week 0) of 23.9 g, a body weight, Mean ([1]; 50 mg/kg/day oral, week 1) of 23.4 g and a body weight, Mean ([1]; 50 mg/kg/day oral, week 2) of 23.5 g. It also gave a body weight, Mean ([1]; 50 mg/kg/day oral, week 3) of 23.3 g, a body weight, Mean ([1]; 50 mg/kg/day oral, week 4) of 23.5 g and a body weight, Mean ([1]; 50 mg/kg/day oral, week 5) of 23.4 g. The body weight, Mean ([1]; 50 mg/kg/day oral, week 6) was 23.5 g, the body weight, Mean ([1]; 50 mg/kg/day oral, week 7) was 23.4 g and the body weight, Mean ([1]; 50 mg/kg/day oral, week 8) was 23.2 g. For the same molecule, the body weight, Mean ([1]; 50 mg/kg/day oral, week 9) was 23 g, the “drinking water intake, Mean” value ([2]; 50 mg/kg/day oral, week 0) was 6.78 and the “drinking water intake, Mean” value ([2]; 50 mg/kg/day oral, week 1) was 6.11. For the same molecule, the “drinking water intake, Mean” value ([2]; 50 mg/kg/day oral, week 2) was 7.68, the “drinking water intake, Mean” value ([2]; 50 mg/kg/day oral, week 3) was 6.99 and the “drinking water intake, Mean” value ([2]; 50 mg/kg/day oral, week 4) was 7.23. The “drinking water intake, Mean” value ([2]; 50 mg/kg/day oral, week 5) was 6.76, the “drinking water intake, Mean” value ([2]; 50 mg/kg/day oral, week 6) was 7.60 and the “drinking water intake, Mean” value ([2]; 50 mg/kg/day oral, week 7) was 7.06. The “drinking water intake, Mean” value ([2]; 50 mg/kg/day oral, week 8) was 7.17, the “drinking water intake, Mean” value ([2]; 50 mg/kg/day oral, week 9) was 7.09 and the “drinking water intake, Mean” value ([2]; 50 mg/kg/day oral, week 10) was 6.76. The “blood sugar, Mean” value ([3]; 50 mg/kg/day oral, value column 2 of 6, head prints only weeks 0, 4, 8, 10) was 336.8, the “blood sugar, Mean” value ([3]; 50 mg/kg/day oral, week 0) was 200.9 and the “GLU compared to the disease control group” value ([4]; 50 mg/kg) was “decreased statistically significantly”. For the same molecule, the “ALT, Mean” value [4, 9] was 31.3 L⁻¹, the “AST, Mean” value [4, 9] was 34.0 L⁻¹ and the “T-CHO, Mean” value [4, 9] was 24.2 dL⁻¹. The “Kidney Medullar apoptosis” value ([5]; 50 mg/kg (G6, G7)) was 0, the “Kidney Medullar mineralization” value ([5]; 50 mg/kg (G6, G7)) was 1 and the “Kidney NHL” value ([5]; 50 mg/kg (G6, G7)) was 8. The “Kidney bowman's capsule hyperplasia” value ([5]; 50 mg/kg (G6, G7)) was 1, the Kidney pappillary mineralization ([5]; 50 mg/kg (G6, G7)) was 0 and the “Liver Apoptosis” value ([5]; 50 mg/kg (G6, G7)) was 2. The “Liver Cytoplasmic glycogen” value ([5]; 50 mg/kg (G6, G7)) was 0, the “Liver Eosinophlic focus of cellular alteration” value ([5]; 50 mg/kg (G6, G7)) was 1 and the “Liver Mononuclear cell infiltrate” value ([5]; 50 mg/kg (G6, G7)) was 3. The “Liver NHL” value ([5]; 50 mg/kg (G6, G7)) was 5, the “Pancrease Apoptosis” value ([5]; 50 mg/kg (G6, G7)) was 0 and the “Pancrease NHL” value ([5]; 50 mg/kg (G6, G7)) was 6. The Pancrease islet degeneration ([5]; 50 mg/kg (G6, G7)) was 2, the Pancrease islet hypertrophy ([5]; 50 mg/kg (G6, G7)) was 2 and the “Pancrease islet, mononuclear cell infillitrate” value ([5]; 50 mg/kg (G6, G7)) was 1.
